Measured values as given in patent publication US20160016929A1, “PRO-DRUG COMPOUNDS” (PROXIMAGEN LIMITED, priority 2013, published 2016).
Values after ≈ are worked out from the molar mass of the structure shown.

Key:
[1] = Solubility in aqueous solutions (Table 3); assay type: physicochemical; conditions: aqueous solution
Procedure: The skilled person understands that the pH of the gastrointestinal tract changes along its length. […] For more detail see, for example, Measurement of gastrointestinal pH profiles in normal ambulant human subjects, Gut. […] Improved solubility is expected to result in improved absorption, and therefore improved oral bioavailability.
In an embodiment prodrugs of the invention are administered intravenously. High prodrug solubility is advantageous in order to reduce the volume of solution administered to the patient, and to reduce the risk of damage to the circulatory system. Solubility of >10 mg/mL is preferred.

[2] = biological target: T1, hERG K+ channel (Homo sapiens, UniProt Q12809); assay: hERG assay, IonWorks patch clamp electrophysiology; assay type: cell-based; conditions: human, pH 7.3; 11 uM; Chinese Hamster Lung cell line stably expressing hERG
T1 construct: a Chinese Hamster Lung cell line stably expressing the full length hERG channel; expressed in transfected cells; host or cells: Chinese Hamster Lung cell line
T1 sequence (Q12809 whole entry): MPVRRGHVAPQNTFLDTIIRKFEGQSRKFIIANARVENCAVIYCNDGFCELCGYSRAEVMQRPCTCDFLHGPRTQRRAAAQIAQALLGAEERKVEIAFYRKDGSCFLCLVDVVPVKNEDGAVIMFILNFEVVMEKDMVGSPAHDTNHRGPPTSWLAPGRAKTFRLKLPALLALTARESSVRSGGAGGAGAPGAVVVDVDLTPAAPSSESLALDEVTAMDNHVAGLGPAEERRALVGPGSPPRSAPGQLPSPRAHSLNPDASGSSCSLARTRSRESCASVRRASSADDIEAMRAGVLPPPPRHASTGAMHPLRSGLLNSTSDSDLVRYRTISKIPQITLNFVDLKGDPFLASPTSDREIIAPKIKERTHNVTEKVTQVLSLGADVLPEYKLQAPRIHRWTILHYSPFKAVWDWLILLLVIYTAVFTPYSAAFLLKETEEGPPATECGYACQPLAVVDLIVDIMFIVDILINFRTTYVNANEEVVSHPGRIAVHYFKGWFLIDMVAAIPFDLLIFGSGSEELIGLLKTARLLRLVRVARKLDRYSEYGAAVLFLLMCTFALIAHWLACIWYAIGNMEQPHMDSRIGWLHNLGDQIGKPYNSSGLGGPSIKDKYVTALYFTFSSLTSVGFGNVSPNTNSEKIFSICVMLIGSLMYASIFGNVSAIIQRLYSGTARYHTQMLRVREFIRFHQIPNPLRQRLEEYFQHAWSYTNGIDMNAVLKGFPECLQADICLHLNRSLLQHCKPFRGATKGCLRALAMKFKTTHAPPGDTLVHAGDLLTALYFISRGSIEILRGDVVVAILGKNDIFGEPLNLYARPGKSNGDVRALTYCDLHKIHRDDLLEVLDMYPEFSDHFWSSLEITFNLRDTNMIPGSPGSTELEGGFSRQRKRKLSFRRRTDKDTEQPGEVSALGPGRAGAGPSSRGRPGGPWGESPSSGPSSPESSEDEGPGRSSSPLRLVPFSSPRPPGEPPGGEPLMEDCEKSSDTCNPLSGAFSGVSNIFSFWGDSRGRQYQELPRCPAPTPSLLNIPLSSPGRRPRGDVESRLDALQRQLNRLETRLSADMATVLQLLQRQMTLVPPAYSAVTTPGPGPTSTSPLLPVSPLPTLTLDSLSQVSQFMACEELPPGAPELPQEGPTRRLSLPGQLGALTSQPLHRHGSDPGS
Procedure: Compounds of the invention were tested for inhibition of the human ether a go-go related gene (hERG) K^+ channel using IonWorks patch clamp electrophysiology. 8 Point concentration-response curves were generated on two occasions using 3-fold serial dilutions from the maximum assay concentration (33 uM). Electrophysiological recordings were made from a Chinese Hamster Lung cell line stably expressing the full length hERG channel. Single cell ion currents were measured in the perforated patch clamp configuration (100 ug/mL amphoterocin) at room temperature using an IonWorks Quattro instrument. The internal solution contained 140 mM KCl, 1 mM MgCl2, 1 mM EGTA and 20 mM HEPES and was buffered to pH 7.3. The external solution contained 138 mM NaCl, 2.7 mM KCl, 0.9 mM CaCl2, 0.5 mM MgCl2, 8 mM Na2HPO4 and 1.5 mM KH2PO4, and was buffered to pH 7.3. Cells were clamped at a holding potential of […] for 30 s and then stepped to +40 mV for 1 s. This was followed by a hyperpolarising step of 1 s to […] to evoke the hERG tail current. This sequence was repeated 5 times at a frequency of 0.25 Hz. Currents were measured from the tail step at the 5th pulse, and referenced to the holding current. Compounds were incubated for 6-7 min prior to a second measurement of the hERG signal using an identical pulse train. A minimum of 17 cells were required for each pIC50 curve fit. A control compound (quinidine) was used.

## CC(=O)c1ccc2c(c1)[C@H](NC(=O)c1ccc(F)c(Cl)c1)[C@H](OC(=O)OCC[N+](C)(C)C)C(C)(C)O2.[I-] [Example 2, (3S,4S)-6-Acetyl-4-[(3-chloro-4-fluorobenzene)amido]-2,2-dimethyl-3,4-dihydro-2H-1-benzopyran-3-yl 2-(trimethylazaniumyl)ethyl carbonate iodide]
[1]; aqueous buffer, pH not given
  solubility: < 1000 µg/mL

## CCN(CC)CCOC(=O)O[C@H]1[C@@H](NC(=O)c2ccc(F)c(Cl)c2)c2cc(C(C)=O)ccc2OC1(C)C [Example 3, (3S,4S)-6-Acetyl-4-[(3-chloro-4-fluorobenzene)amido]-2,2-dimethyl-3,4-dihydro-2H-1-benzopyran-3-yl 2-(diethylamino)ethyl carbonate]
[1]; aqueous buffer, pH not given
  solubility: < 1000 µg/mL
[2]
  inhibition at 11 µM: 20%

## CC(=O)c1ccc2c(c1)[C@H](NC(=O)c1ccc(F)c(Cl)c1)[C@H](OC(=O)NCC(=O)O)C(C)(C)O2 [Example 7, 2-[({[(3S,4S)-6-Acetyl-4-[(3-chloro-4-fluorobenzene)amido]-2,2-dimethyl-3,4-dihydro-2H-1-benzopyran-3-yl]oxy}carbonyl)amino]acetic acid]
[1]; pH 8.8, aqueous buffer
  solubility: < 1000 µg/mL

## CC(=O)c1ccc2c(c1)[C@H](NC(=O)c1ccc(F)c(Cl)c1)[C@H](OC(=O)CNC(=O)[C@@H]1CCCN1)C(C)(C)O2 [Example 10, (3S,4S)-6-Acetyl-4-[(3-chloro-4-fluorobenzene)amido]-2,2-dimethyl-3,4-dihydro-2H-1-benzopyran-3-yl 2-[(2S)-pyrrolidin-2-ylformamido]acetate]
[1]; pH 4.2, aqueous buffer
  solubility: 500 µg/mL (≈ 916 µM)
[2]
  inhibition at 11 µM: 32%

## CC(=O)c1ccc2c(c1)[C@H](NC(=O)c1ccc(F)c(Cl)c1)[C@H](OC(=O)CNC(=O)[C@@H](N)CC(C)C)C(C)(C)O2.Cl [Example 11, (3S,4S)-6-Acetyl-4-[(3-chloro-4-fluorobenzene)amido]-2,2-dimethyl-3,4-dihydro-2H-1-benzopyran-3-yl 2-[(2S)-2-amino-4-methylpentanamido]acetate hydrochloride]
[1]; aqueous buffer, pH 5.0
  solubility: > 10000 µg/mL
[2]
  inhibition at 11 µM: 34%

## CC(=O)c1ccc2c(c1)[C@H](NC(=O)c1ccc(F)c(Cl)c1)[C@H](OC(=O)CNC(=O)CN)C(C)(C)O2.Cl [Example 12, (3S,4S)-6-Acetyl-4-[(3-chloro-4-fluorobenzene)amido]-2,2-dimethyl-3,4-dihydro-2H-1-benzopyran-3-yl 2-(2-aminoacetamido)acetate hydrochloride]
[1]; pH 5.1, aqueous buffer
  solubility: > 10000 µg/mL
[2]
  inhibition at 11 µM: 43%

## CC[C@H](C)[C@H](N)C(=O)NCC(=O)O[C@H]1[C@@H](NC(=O)c2ccc(F)c(Cl)c2)c2cc(C(C)=O)ccc2OC1(C)C.Cl [Example 13, (3S,4S)-6-Acetyl-4-[(3-chloro-4-fluorobenzene)amido]-2,2-dimethyl-3,4-dihydro-2H-1-benzopyran-3-yl 2-[(2S,3S)-2-amino-3-methylpentanamido]acetate hydrochloride]
[1]; aqueous buffer, pH 5.0
  solubility: > 10000 µg/mL
[2]
  inhibition at 11 µM: 2%

## CC(=O)c1ccc2c(c1)[C@H](NC(=O)c1ccc(F)c(Cl)c1)[C@H](OC(=O)CNC(=O)[C@@H](N)C(C)C)C(C)(C)O2.Cl [Example 14, (3S,4S)-6-Acetyl-4-[(3-chloro-4-fluorobenzene)amido]-2,2-dimethyl-3,4-dihydro-2H-1-benzopyran-3-yl 2-[(2S)-2-amino-3-methylbutanamido]acetate hydrochloride]
[1]; pH 5.5, aqueous buffer
  solubility: > 10000 µg/mL
[2]
  inhibition at 11 µM: 14%

## CC(=O)c1ccc2c(c1)[C@H](NC(=O)c1ccc(F)c(Cl)c1)[C@H](OC(=O)[C@@H](NC(=O)[C@@H](N)C(C)C)C(C)C)C(C)(C)O2.Cl [Example 15, (3S,4S)-6-Acetyl-4-[(3-chloro-4-fluorobenzene)amido]-2,2-dimethyl-3,4-dihydro-2H-1-benzopyran-3-yl (2S)-2-[(2S)-2-amino-3-methylbutanamido]-3-methylbutanoate hydrochloride]
[1]; pH 4.5, aqueous buffer
  solubility: > 10000 µg/mL
[2]
  inhibition at 11 µM: 21%

## CC(=O)c1ccc2c(c1)[C@H](NC(=O)c1ccc(F)c(Cl)c1)[C@H](OC(=O)[C@@H](NC(=O)CN)C(C)C)C(C)(C)O2.Cl [Example 16, (3S,4S)-6-Acetyl-4-[(3-chloro-4-fluorobenzene)amido]-2,2-dimethyl-3,4-dihydro-2H-1-benzopyran-3-yl (2S)-2-(2-aminoacetamido)-3-methylbutanoate hydrochloride]
[1]; pH 4.4, aqueous buffer
  solubility: 1000 µg/mL

## CC(=O)c1ccc2c(c1)[C@H](NC(=O)c1ccc(F)c(Cl)c1)[C@H](OC(=O)CCCN1CCOCC1)C(C)(C)O2.Cl [Example 17, (3S,4S)-6-Acetyl-4-[(3-chloro-4-fluorobenzene)amido]-2,2-dimethyl-3,4-dihydro-2H-1-benzopyran-3-yl 4-(morpholin-4-yl)butanoate hydrochloride]
[1]; pH 5.7, aqueous buffer
  solubility: 1000 µg/mL
[2]
  inhibition at 11 µM: 27%

## CC(=O)c1ccc2c(c1)[C@H](NC(=O)c1ccc(F)c(Cl)c1)[C@H](OC(=O)[C@H](C)NC(=O)[C@@H](N)C(C)C)C(C)(C)O2.Cl [Example 20, (3S,4S)-6-Acetyl-4-[(3-chloro-4-fluorobenzene)amido]-2,2-dimethyl-3,4-dihydro-2H-1-benzopyran-3-yl (2S)-2-[(2S)-2-amino-3-methylbutanamido]propanoate hydrochloride]
[1]; pH 5.6, aqueous buffer
  solubility: > 10000 µg/mL

## CC(=O)c1ccc2c(c1)[C@H](NC(=O)c1ccc(F)c(Cl)c1)[C@H](OC(=O)[C@H](C)NC(=O)[C@@H](N)CC(C)C)C(C)(C)O2.Cl [Example 21, 6-Acetyl-4-[(3-chloro-4-fluorobenzene)amido]-2,2-dimethyl-3,4-dihydro-2H-1-benzopyran-3-yl (2S)-2-[(2S)-2-amino-4-methylpentanamido]propanoate hydrochloride]
[1]; pH 5.2, aqueous buffer
  solubility: > 10000 µg/mL

## CC(=O)c1ccc2c(c1)[C@H](NC(=O)c1ccc(F)c(Cl)c1)[C@H](OC(=O)[C@H](C)N(C)C(=O)[C@@H](N)C(C)C)C(C)(C)O2.Cl [Example 29, 6-Acetyl-4-[(3-chloro-4-fluorobenzene)amido]-2,2-dimethyl-3,4-dihydro-2H-1-benzopyran-3-yl (2S)-2-[(2S)-2-amino-N,3-dimethylbutanamido]propanoate hydrochloride]
[1]; pH 5.3, aqueous buffer
  solubility: > 10000 µg/mL
